Source: patent US9944602B2, “Piperidinone herbicides” (E. I. DU PONT DE NEMOURS AND COMPANY, priority 2014, dated 2018)

Legend:
Type in all cases: in vivo
[1] = system: barnyardgrass (Echinochloa crus-galli); assay: Test A preemergence barnyardgrass; conditions: 0 to 100 scale, 0 no effect, 100 complete control
From the text: (§1) Seeds of plant species selected from barnyardgrass (Echinochloa crus-galli), kochia (Kochia scoparia), ragweed (common ragweed, Ambrosia elatior), ryegrass, Italian (Italian ryegrass, Lolium multiflorum), crabgrass, large (large crabgrass, Digitaria sanguinalis), foxtail, giant (giant foxtail, Setaria faberii), morningglory (Ipomoea spp.), pigweed (Amaranthus retroflexus), velvetleaf (Abutilon theophrasti), wheat (Triticum aestivum), and corn (Zea mays) were planted into a blend of loam soil and sand and treated preemergence with a directed soil spray using test chemicals formulated in a non-phytotoxic solvent mixture which included a surfactant.
(§2) At the same time, plants selected from these crop and weed species and also blackgrass (Alopecurus myosuroides), and galium (catchweed bedstraw, Galium aparine) were planted in pots containing the same blend of loam soil and sand and treated with postemergence applications of test chemicals formulated in the same manner. Plants ranged in height from 2 to 10 cm and were in the one- to two-leaf stage for the postemergence treatment. Treated plants and untreated controls were maintained in a greenhouse for approximately 10 d, after which time all treated plants were compared to untreated controls and visually evaluated for injury. Plant response ratings, summarized in Table A, are based on a 0 to 100 scale where 0 is no effect and 100 is complete control. A dash (-) response means no test result.

kochia (Kochia scoparia) [2] = assay: Test A preemergence kochia; conditions: 0 to 100 scale, 0 no effect, 100 complete control
From the text: as §1, §2

[3] = system: ragweed (common ragweed, Ambrosia elatior); assay: Test A preemergence ragweed; conditions: 0 to 100 scale, 0 no effect, 100 complete control
From the text: as §1, §2

[4] = system: ryegrass, Italian (Italian ryegrass, Lolium multiflorum); assay: Test A preemergence ryegrass, Italian; conditions: 0 to 100 scale, 0 no effect, 100 complete control
From the text: as §1, §2

[5] = system: foxtail, giant (giant foxtail, Setaria faberii); assay: Test A preemergence foxtail, giant; conditions: 0 to 100 scale, 0 no effect, 100 complete control
From the text: as §1, §2

[6] = system: pigweed (Amaranthus retroflexus); assay: Test A preemergence pigweed; conditions: 0 to 100 scale, 0 no effect, 100 complete control
From the text: as §1, §2

[7] = system: barnyardgrass (Echinochloa crus-galli); assay: Test A postemergence barnyardgrass; conditions: 0 to 100 scale, 0 is no effect, 100 is complete control
From the text: as §1, §2

kochia (Kochia scoparia) [8] = assay: Test A postemergence kochia; conditions: 0 to 100 scale, 0 is no effect, 100 is complete control
From the text: as §1, §2

[9] = system: ragweed (common ragweed, Ambrosia elatior); assay: Test A postemergence ragweed; conditions: 0 to 100 scale, 0 is no effect, 100 is complete control
From the text: as §1, §2

[10] = system: ryegrass, Italian (Italian ryegrass, Lolium multiflorum); assay: Test A postemergence ryegrass, Italian; conditions: 0 to 100 scale, 0 is no effect, 100 is complete control
From the text: as §1, §2

[11] = system: foxtail, giant (giant foxtail, Setaria faberii); assay: Test A postemergence foxtail, giant; conditions: 0 to 100 scale, 0 is no effect, 100 is complete control
From the text: as §1, §2

[12] = system: pigweed (Amaranthus retroflexus); assay: Test A postemergence pigweed; conditions: 0 to 100 scale, 0 is no effect, 100 is complete control
From the text: as §1, §2

[13] = system: wheat (Triticum aestivum); assay: Test A postemergence wheat; conditions: 0 to 100 scale, 0 is no effect, 100 is complete control
From the text: as §1, §2

corn (Zea mays) = assay: Test A postemergence corn; conditions: 0 to 100 scale, 0 is no effect, 100 is complete control
From the text: as §1, §2

[14] = system: blackgrass (Alopecurus myosuroides); assay: Test A postemergence blackgrass; conditions: 0 to 100 scale, 0 is no effect, 100 is complete control
From the text: as §1, §2

[15] = system: galium (catchweed bedstraw, Galium aparine); assay: Test A postemergence galium; conditions: 0 to 100 scale, 0 is no effect, 100 is complete control
From the text: as §1, §2

rice (Oryza sativa) = assay: Test B flooded paddy test rice; conditions: Table B, Flood, scale 0 to 100
Description: (§3) Plant species in the flooded paddy test selected from rice (Oryza sativa), sedge, umbrella (small-flower umbrella sedge, Cyperus difformis), ducksalad (Heteranthera limosa), and barnyardgrass (Echinochloa crus-galli) were grown to the 2-leaf stage for testing. At the time of treatment, test pots were flooded to 3 cm above the soil surface, treated by application of test compounds directly to the paddy water, and then maintained at that water depth for the duration of the test. Treated plants and controls were maintained in a greenhouse for 13 to 15 d, after which time all species were compared to controls and visually evaluated. […] A dash (-) response means no test result.

[16] = system: sedge, umbrella (small-flower umbrella sedge, Cyperus difformis); assay: Test B flooded paddy test sedge, umbrella; conditions: Table B, Flood, scale 0 to 100
Description: as §3

[17] = system: ducksalad (Heteranthera limosa); assay: Test B flooded paddy test ducksalad; conditions: Table B, Flood, scale 0 to 100
Description: as §3

[18] = system: barnyardgrass (Echinochloa crus-galli); assay: Test B flooded paddy test barnyardgrass; conditions: Table B, Flood, scale 0 to 100
Description: as §3

| Structure (SMILES) | Barnyardgrass plant response rating ([1]; 125 g ai/ha) | Barnyardgrass plant response rating ([1]; 500 g ai/ha) | Kochia plant response rating (kochia (Kochia scoparia) [2]; 125 g ai/ha) | Kochia plant response rating (kochia (Kochia scoparia) [2]; 500 g ai/ha) | Ragweed plant response rating ([3]; 125 g ai/ha) | Ragweed plant response rating ([3]; 500 g ai/ha) | Ryegrass, Italian plant response rating ([4]; 125 g ai/ha) | Ryegrass, Italian plant response rating ([4]; 500 g ai/ha) | Foxtail, Giant plant response rating ([5]; 125 g ai/ha) | Foxtail, Giant plant response rating ([5]; 500 g ai/ha) | Pigweed plant response rating ([6]; 125 g ai/ha) | Pigweed plant response rating ([6]; 500 g ai/ha) | Plant response rating, Barnyardgrass ([7]; 125 g ai/ha) | Plant response rating, Barnyardgrass ([7]; 500 g ai/ha) | Plant response rating, Kochia (kochia (Kochia scoparia) [8]; 125 g ai/ha) | Plant response rating, Kochia (kochia (Kochia scoparia) [8]; 500 g ai/ha) | Plant response rating, Ragweed ([9]; 125 g ai/ha) | Plant response rating, Ragweed ([9]; 500 g ai/ha) | Plant response rating, Ryegrass, Italian ([10]; 125 g ai/ha) | Plant response rating, Ryegrass, Italian ([10]; 500 g ai/ha) | other results |
| --- | --- | --- | --- | --- | --- | --- | --- | --- | --- | --- | --- | --- | --- | --- | --- | --- | --- | --- | --- | --- | --- |
| O=C1NCCC(c2cccc(C(F)(F)F)c2)C1C(=O)Nc1cccc(Cl)c1Cl (racemic) [Compound 31] | 70 | 80 | 0 | 0 | 0 | 0 | 0 | 0 | 70 | 90 | 0 | 0 | 60 | 80 | 0 | 0 | 0 | 0 | 0 | 0 | Plant response rating, Foxtail, Giant ([11]; 125 g ai/ha): 70; Plant response rating, Foxtail, Giant ([11]; 500 g ai/ha): 80; Plant response rating, Pigweed ([12]; 125 g ai/ha): 0; Plant response rating, Pigweed ([12]; 500 g ai/ha): 0; Plant response rating, Wheat ([13]; 125 g ai/ha): 0; Plant response rating, Wheat ([13]; 500 g ai/ha): 0; Plant response rating, Corn (corn (Zea mays); 125 g ai/ha): 0; Plant response rating, Corn (corn (Zea mays); 500 g ai/ha): 0; Plant response rating, Blackgrass ([14]; 125 g ai/ha): 20; Plant response rating, Blackgrass ([14]; 500 g ai/ha): 40; Plant response rating, Galium ([15]; 125 g ai/ha): 0; Plant response rating, Galium ([15]; 500 g ai/ha): 0; Plant response rating (rice (Oryza sativa); 500 g ai/ha): 10; Plant response rating ([16]; 500 g ai/ha): 0; Plant response rating ([17]; 500 g ai/ha): 0; Plant response rating ([18]; 500 g ai/ha): 95 |
| CS(=O)(=O)c1ccccc1NC(=O)C1C(=O)NCCC1c1cccc(C(F)(F)F)c1 (racemic) [Compound 32] | 20 | 90 | 0 | 20 | 0 | 0 | 0 | 30 | 70 | 90 | 0 | 0 | 60 | 70 | 0 | 20 | 0 | 0 | 0 | 20 | Plant response rating, Foxtail, Giant ([11]; 125 g ai/ha): 40; Plant response rating, Foxtail, Giant ([11]; 500 g ai/ha): 40; Plant response rating, Pigweed ([12]; 125 g ai/ha): 0; Plant response rating, Pigweed ([12]; 500 g ai/ha): 0; Plant response rating, Wheat ([13]; 125 g ai/ha): 0; Plant response rating, Wheat ([13]; 500 g ai/ha): 0; Plant response rating, Corn (corn (Zea mays); 125 g ai/ha): 0; Plant response rating, Corn (corn (Zea mays); 500 g ai/ha): 30; Plant response rating, Blackgrass ([14]; 125 g ai/ha): 0; Plant response rating, Blackgrass ([14]; 500 g ai/ha): 0; Plant response rating, Galium ([15]; 125 g ai/ha): 0; Plant response rating, Galium ([15]; 500 g ai/ha): 0; Plant response rating (rice (Oryza sativa); 500 g ai/ha): 0; Plant response rating ([16]; 500 g ai/ha): 0; Plant response rating ([17]; 500 g ai/ha): 40; Plant response rating ([18]; 500 g ai/ha): 0 |
| O=C1NCCC(c2cccc(Cl)c2)C1C(=O)Nc1ccccc1C(F)(F)F (racemic) [Compound 33] | 50 | 90 | 0 | 30 | 0 | 0 | 0 | 0 | 70 | 90 | 0 | 0 | 60 | 90 | 0 | 0 | 0 | 0 | 0 | 0 | Plant response rating, Foxtail, Giant ([11]; 125 g ai/ha): 50; Plant response rating, Foxtail, Giant ([11]; 500 g ai/ha): 90; Plant response rating, Pigweed ([12]; 125 g ai/ha): 0; Plant response rating, Pigweed ([12]; 500 g ai/ha): 0; Plant response rating, Wheat ([13]; 125 g ai/ha): 0; Plant response rating, Wheat ([13]; 500 g ai/ha): 0; Plant response rating, Corn (corn (Zea mays); 125 g ai/ha): 0; Plant response rating, Corn (corn (Zea mays); 500 g ai/ha): 0; Plant response rating, Blackgrass ([14]; 125 g ai/ha): 0; Plant response rating, Blackgrass ([14]; 500 g ai/ha): 0; Plant response rating, Galium ([15]; 125 g ai/ha): 0; Plant response rating, Galium ([15]; 500 g ai/ha): 0; Plant response rating (rice (Oryza sativa); 500 g ai/ha): 0; Plant response rating ([16]; 500 g ai/ha): 0; Plant response rating ([17]; 500 g ai/ha): 80; Plant response rating ([18]; 500 g ai/ha): 20 |
| O=C1NCCC(c2cccc(Cl)c2)C1C(=O)Nc1ccccc1F (racemic) [Compound 34] | 40 | 90 | 0 | 30 | 0 | 30 | 0 | 0 | 50 | 90 | 0 | 30 | 40 | 90 | 0 | 0 | 0 | 0 | 0 | 0 | Plant response rating, Foxtail, Giant ([11]; 125 g ai/ha): 40; Plant response rating, Foxtail, Giant ([11]; 500 g ai/ha): 80; Plant response rating, Pigweed ([12]; 125 g ai/ha): 0; Plant response rating, Pigweed ([12]; 500 g ai/ha): 0; Plant response rating, Wheat ([13]; 125 g ai/ha): 0; Plant response rating, Wheat ([13]; 500 g ai/ha): 0; Plant response rating, Corn (corn (Zea mays); 125 g ai/ha): 0; Plant response rating, Corn (corn (Zea mays); 500 g ai/ha): 0; Plant response rating, Blackgrass ([14]; 125 g ai/ha): 0; Plant response rating, Blackgrass ([14]; 500 g ai/ha): 0; Plant response rating, Galium ([15]; 125 g ai/ha): 0; Plant response rating, Galium ([15]; 500 g ai/ha): 0; Plant response rating (rice (Oryza sativa); 500 g ai/ha): 0; Plant response rating ([16]; 500 g ai/ha): 0; Plant response rating ([17]; 500 g ai/ha): 40; Plant response rating ([18]; 500 g ai/ha): 0 |
| O=C1NCCC(c2cccc(OC(F)(F)F)c2)C1C(=O)Nc1ccccc1F (racemic) [Compound 37] | 40 | 70 | 0 | 0 | 0 | 0 | 0 | 0 | 70 | 90 | 0 | 0 | 60 | 80 | 0 | 0 | 0 | 0 | 0 | 20 | Plant response rating, Foxtail, Giant ([11]; 125 g ai/ha): 20; Plant response rating, Foxtail, Giant ([11]; 500 g ai/ha): 70; Plant response rating, Pigweed ([12]; 125 g ai/ha): 0; Plant response rating, Pigweed ([12]; 500 g ai/ha): 0; Plant response rating, Wheat ([13]; 125 g ai/ha): 0; Plant response rating, Wheat ([13]; 500 g ai/ha): 0; Plant response rating, Corn (corn (Zea mays); 125 g ai/ha): 0; Plant response rating, Corn (corn (Zea mays); 500 g ai/ha): 0; Plant response rating, Blackgrass ([14]; 125 g ai/ha): 0; Plant response rating, Blackgrass ([14]; 500 g ai/ha): 0; Plant response rating, Galium ([15]; 125 g ai/ha): 0; Plant response rating, Galium ([15]; 500 g ai/ha): 0; Plant response rating (rice (Oryza sativa); 250 g ai/ha): 0; Plant response rating ([16]; 250 g ai/ha): 0; Plant response rating ([17]; 250 g ai/ha): 90; Plant response rating ([18]; 250 g ai/ha): 35 |
